One assay deals with BRD4(BD1) (Homo sapiens (Human), UniProt O60885). Nature of the assay: In vitro enzyme inhibition assay (BRD4 AlphaScreen). Type of assay: binding. The method in brief: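 AlphaScreen proximity readout, using streptavidin donor and Ni-chelate acceptor beads at 5 μg/mL final, monitors biotin-H4 tetraacetylated peptide interaction with purified His-tagged BRD4.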
In general terms: In Alpha technology, singlet oxygen from a donor bead excites a nearby acceptor bead.

Assay [1] relates to HL-60, human proleukemia cells. As to the kind of experiment: Cell-MTS proliferation assay, HL-60. Type of assay: cell-based. To be noted: Homo sapiens, 168 hr. The method in brief:
(§1)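 Seven-day colorimetric MTS assay; compound at 11 concentrations from 100 μM down to 2.0 nM final, added a day after plating. IC50 from OD490 normalised to DMSO controls.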

In assay [2] the test system is NCI-H460, human non-small cell lung cancer cells. Nature of the assay: Cell-MTS proliferation assay, NCI-H460. Conditions: Homo sapiens, 168 hr. Type of assay: cell-based. The protocol:
The Cell-MTS assay is a 7-day plate-based colorimetric assay which quantifies the amount of newly generated NADH in the presence or absence of test compound. The NADH level is used for the quantification of cancer cell proliferation.
Established cancer cell lines with a variety of driving mutations were obtained from American Type Culture Collection (ATCC) and routinely passaged according to ATCC protocols. For routine assay, these cells were seeded at densities which enabled ˜90% confluence after 7 days of culture. Raji, human Burkitts lymphoma cells, (cMYC) were seeded at 15,000 cells per 96-well. HL-60, human proleukemia cells, (NRAS, p16, p53, c-Myc amplified) were seeded at 5,000 cells per 96-well. NCI-H460, human non-small cell lung cancer cells, (KRAS, PIK3CA, STLK11, p16) were seeded at 3,000 cells per 96-well. 24 hr after plating, cells received an 11-point dilution of test compound with final concentration ranges from 100 μM to 2.0 nM. […] At the end of this incubation period, 80 μL of media is removed and 20 μL of CellTiter 96® AQueous Non-Radioactive Cell Proliferation Assay soln (Promega) was added. The cells were incubated until the OD490 was >0.6. IC50 values were calculated using the IDBS XLfit software package and include background subtracted OD490 values and normalization to DMSO controls. Cellular proliferation IC50 values were uploaded and archived using the Chem Biography Platform.

Assay [3] deals with Raji, human Burkitts lymphoma cells. As to the kind of experiment: Cell-MTS proliferation assay, Raji. The class given is cell-based. Conditions: Homo sapiens, 168 hr. In a few lines:
as §1
Background: Tetrazolium dyes change colour on reduction, which living cells bring about.

The mark [4] stands for this setting: in vitro enzyme inhibition assay.
Setting [5] is: NCI-H460, Cell-MTS proliferation.
The mark [6] stands for this setting: Cell-MTS proliferation, HL-60 cells.
[7] abbreviates: Cell-MTS proliferation, NCI-H460 cells.
Setting [8] is: Cell-MTS proliferation, Raji cells.
Setting [9] is: HL-60, Cell-MTS, class symbols A/B/C.
Setting [10] is: NCI-H460, Cell-MTS, class symbols A/B/C.
The mark [11] stands for this setting: Raji, Cell-MTS, class symbols A/B/C.

As a reminder, the IC50 is the concentration that inhibits the measured activity by half. A low value points to greater potency.

Regarding `Cn1cc(-c2nc(S(C)(=O)=O)ccc2OCC2CC2)c2ccccc2c1=O` [Example 199, 4-[3-(cyclopropylmethoxy)-6-methylsulfonylpyridin-2-yl]-2-methylisoquinolin-1-one], the half-maximal inhibitory concentration (IC50) at BRD4(BD1) (setting [4]) is under 500 nM; in assay [1] (HL-60, Cell-MTS proliferation), under 500 nM; in assay [2] (setting [5]) it was over 5000 nM; in assay [3] (Raji, Cell-MTS proliferation), under 500 nM.
For `Cn1cc(-c2cc(S(C)(=O)=O)ccc2NCC2CC2)ccc1=O` [Example 468, 5-[2-(cyclopropylmethylamino)-5-methylsulfonylphenyl]-1-methylpyridin-2-one], the IC50 against BRD4(BD1) (setting [4]) is under 500 nM; in assay [1] (setting [6]), 500 to 5000 nM; in assay [2] (setting [7]), over 5000 nM; in assay [3] (setting [8]) it was over 5000 nM.
For `Cc1cc(-c2cc(NS(C)(=O)=O)ccc2O[C@H]2CC[C@@H](O)CC2)cn(C)c1=O` [Example 434, N-[3-(1,5-dimethyl-6-oxopyridin-3-yl)-4-(cis-4-hydroxycyclohexyl)oxyphenyl] methanesulfonamide], the IC50 against BRD4(BD1) (setting [4]) was under 500 nM; in assay [1] (setting [6]), 500 to 5000 nM; in assay [2] (setting [7]), over 5000 nM; in assay [3] (setting [8]) it was 500 to 5000 nM.
For the molecule `COc1cc(F)c(CS(C)(=O)=O)cc1-c1cn(C)c(=O)c2ccc(-c3cnn(C)c3)cc12` [Example 88, 4-[4-fluoro-2-methoxy-5-(methylsulfonylmethyl)phenyl]-2-methyl-6-(1-methylpyrazol-4-yl)isoquinolin-1-one], the IC50 is under 500 nM at BRD4(BD1) (class symbols A/B/C), under 500 nM in assay [1] (setting [9]), over 5000 nM in assay [2] (setting [10]) and under 500 nM in assay [3] (setting [11]).
On to `Cc1cc(-c2cc(NS(C)(=O)=O)ccc2OC2CCCOC2)cn(C)c1=O` (stereo not drawn) [Example 446, N-[3-(1,5-dimethyl-6-oxopyridin-3-yl)-4-(oxan-3-yloxy)phenyl] methanesulfonamide], for which the IC50 is under 500 nM against BRD4(BD1) (setting [4]), under 500 nM in assay [1] (setting [6]), over 5000 nM in assay [2] (setting [7]) and under 500 nM in assay [3] (setting [8]).
For `CCS(=O)(=O)Nc1cccc(-c2cn(C)c(=O)c3ccc(-c4ccccn4)cc23)c1` [Example 87, N-[3-(2-methyl-1-oxo-6-pyridin-2-ylisoquinolin-4-yl)phenyl]ethanesulfonamide], the concentration for half-maximal inhibition (IC50) on BRD4(BD1) (class symbols A/B/C) was 500 to 5000 nM; in assay [1] (setting [9]), under 500 nM; in assay [2] (setting [10]), over 5000 nM; in assay [3] (setting [11]), 500 to 5000 nM.
Take `Cn1cc(-c2cc(S(C)(=O)=O)ccc2OC2CCCOC2)c2ccccc2c1=O` (stereo not drawn) [Example 179, 2-methyl-4-[5-methylsulfonyl-2-(oxan-3-yloxy)phenyl]isoquinolin-1-one]: the IC50 against BRD4(BD1) (setting [4]) is under 500 nM; in assay [1] (HL-60, Cell-MTS proliferation), under 500 nM; in assay [2] (setting [5]), over 5000 nM; in assay [3] (Raji, Cell-MTS proliferation), under 500 nM.
As for `CCS(=O)(=O)c1ccc(OCC2CC2)c(-c2cc(C)c(=O)n(C3CC3)c2)c1` [Example 251, 1-cyclopropyl-5-[2-(cyclopropylmethoxy)-5-ethylsulfonylphenyl]-3-methylpyridin-2-one], the half-maximal inhibitory concentration (IC50) against BRD4(BD1) (setting [4]) is under 500 nM; in assay [1] (HL-60, Cell-MTS proliferation), under 500 nM; in assay [2] (setting [5]), over 5000 nM; in assay [3] (Raji, Cell-MTS proliferation), 500 to 5000 nM.
Take `Cn1cc(-c2cc(OCc3ccccc3OC(F)F)cc(S(C)(=O)=O)c2)c2ccoc2c1=O` [Example 348, 4-[3-[[2-(difluoromethoxy)phenyl]methoxy]-5-methylsulfonylphenyl]-6-methylfuro[2,3-c]pyridin-7-one]: the half-inhibitory concentration (IC50) was under 500 nM against BRD4(BD1) (setting [4]); under 500 nM in assay [1] (HL-60, Cell-MTS proliferation); 500 to 5000 nM in assay [2] (setting [5]); under 500 nM in assay [3] (Raji, Cell-MTS proliferation).
As for `CCS(=O)(=O)Nc1ccc(Oc2ccc(F)cc2F)c(-c2cc(C3CC3)c(=O)n(C)c2)c1` [Example 140, N-[3-(5-cyclopropyl-1-methyl-6-oxopyridin-3-yl)-4-(2,4-difluorophenoxy)phenyl]ethanesulfonamide], the IC50 was under 500 nM against BRD4(BD1) (setting [4]); under 500 nM in assay [1] (HL-60, Cell-MTS proliferation); over 5000 nM in assay [2] (setting [5]); under 500 nM in assay [3] (Raji, Cell-MTS proliferation).
For `COc1ccc(-c2cn(C)c(=O)c3cncn23)cc1NS(C)(=O)=O` [Example 132, N-[2-methoxy-5-(7-methyl-8-oxoimidazo[1,5-a]pyrazin-5-yl)phenyl]methanesulfonamide], the IC50 on BRD4(BD1) (class symbols A/B/C) was 500 to 5000 nM; in assay [1] (setting [9]), 500 to 5000 nM; in assay [2] (setting [10]), 500 to 5000 nM; in assay [3] (setting [11]) it was over 5000 nM.
On to `Cn1cc(-c2cc(NS(C)(=O)=O)ccc2Oc2ccc(F)cc2F)cc(C2CC2)c1=O` [Example 279, N-[3-(5-cyclopropyl-1-methyl-6-oxopyridin-3-yl)-4-(2,4-difluorophenoxy)phenyl]methanesulfonamide], for which the 50% inhibitory concentration (IC50) was under 500 nM on BRD4(BD1) (setting [4]); under 500 nM in assay [1] (HL-60, Cell-MTS proliferation); over 5000 nM in assay [2] (setting [5]); under 500 nM in assay [3] (Raji, Cell-MTS proliferation).
Take `CCS(=O)(=O)c1ccc(NCC2CC2)c(-c2ccc(=O)n(C)c2)c1` [Example 473, 5-[2-(cyclopropylmethylamino)-5-ethylsulfonylphenyl]-1-methylpyridin-2-one]: the half-maximal inhibitory concentration (IC50) was under 500 nM on BRD4(BD1) (setting [4]), under 500 nM in assay [1] (setting [6]), over 5000 nM in assay [2] (setting [7]) and 500 to 5000 nM in assay [3] (setting [8]).
On to `CCS(=O)(=O)Nc1ncc(OCC2CC2)c(-c2cn(C)c(=O)c3occc23)n1` [Example 264, N-[5-(cyclopropylmethoxy)-4-(6-methyl-7-oxofuro[2,3-c]pyridin-4-yl)pyrimidin-2-yl]ethanesulfonamide], for which the 50% inhibitory concentration (IC50) against BRD4(BD1) (setting [4]) was under 500 nM; in assay [1] (HL-60, Cell-MTS proliferation), under 500 nM; in assay [2] (setting [5]), over 5000 nM; in assay [3] (Raji, Cell-MTS proliferation), under 500 nM.
Consider `CC#CCOc1ccc(S(C)(=O)=O)cc1-c1cc(C)c(=O)n(C)c1` [Example 388, 5-(2-but-2-ynoxy-5-methylsulfonylphenyl)-1,3-dimethylpyridin-2-one], for which the IC50 is under 500 nM against BRD4(BD1) (setting [4]), under 500 nM in assay [1] (setting [6]), over 5000 nM in assay [2] (setting [7]) and under 500 nM in assay [3] (setting [8]).
On to `Cc1cc(-c2cc(OCc3ccccc3OC(F)F)cc(S(C)(=O)=O)c2)cn(C)c1=O` [Example 333, 5-[3-[[2-(difluoromethoxy)phenyl]methoxy]-5-methylsulfonylphenyl]-1,3-dimethylpyridin-2-one], for which the concentration for half-maximal inhibition (IC50) at BRD4(BD1) (setting [4]) was under 500 nM; in assay [1] (HL-60, Cell-MTS proliferation), under 500 nM; in assay [2] (setting [5]), over 5000 nM; in assay [3] (Raji, Cell-MTS proliferation) it was 500 to 5000 nM.
Take `Cn1cc(-c2cc(S(C)(=O)=O)ccc2OCC2CC2)c2c(c1=O)CCCC2` [Example 217, 4-[2-(cyclopropylmethoxy)-5-methylsulfonylphenyl]-2-methyl-5,6,7,8-tetrahydroisoquinolin-1-one]: the concentration for half-maximal inhibition (IC50) at BRD4(BD1) (setting [4]) is under 500 nM; in assay [1] (HL-60, Cell-MTS proliferation), under 500 nM; in assay [2] (setting [5]) it was over 5000 nM; in assay [3] (Raji, Cell-MTS proliferation) it was under 500 nM.
As for `Cn1cc(-c2cc(S(N)(=O)=O)ccc2NCC2CC2)ccc1=O` [Example 453, 4-(cyclopropylmethylamino)-3-(1-methyl-6-oxopyridin-3-yl)benzenesulfonamide], the IC50 (against BRD4(BD1) (setting [4]); in assay [1] (setting [6]); in assay [2] (setting [7]); in assay [3] (setting [8])) was over 5000 nM in each case.
As to `CCS(=O)(=O)c1ccc(OC2CCCC2)c(-c2cn(C)c(=O)c3cncn23)c1` [Example 374, 5-(2-cyclopentyloxy-5-ethylsulfonylphenyl)-7-methylimidazo[1,5-a]pyrazin-8-one], the half-inhibitory concentration (IC50) against BRD4(BD1) (setting [4]) was under 500 nM; in assay [1] (setting [6]), under 500 nM; in assay [2] (setting [7]), over 5000 nM; in assay [3] (setting [8]), under 500 nM.
Regarding `Cc1cc(-c2cn(CS(C)(=O)=O)c(=O)cc2Oc2ccc(F)cc2F)cn(C)c1=O` [Example 385, 5-[4-(2,4-difluorophenoxy)-1-(methylsulfonylmethyl)-6-oxopyridin-3-yl]-1,3-dimethylpyridin-2-one], the IC50 at BRD4(BD1) (setting [4]) is under 500 nM; in assay [1] (setting [6]), under 500 nM; in assay [2] (setting [7]), over 5000 nM; in assay [3] (setting [8]) it was under 500 nM.
Take `Cc1cc(=O)n(C)cc1-c1cc(CS(C)(=O)=O)ccc1Oc1ccc(F)cc1F` [Example 454, 5-[2-(2,4-difluorophenoxy)-5-(methylsulfonylmethyl)phenyl]-1,4-dimethylpyridin-2-one]: the half-maximal inhibitory concentration (IC50) is under 500 nM on BRD4(BD1) (setting [4]), under 500 nM in assay [1] (setting [6]), over 5000 nM in assay [2] (setting [7]) and under 500 nM in assay [3] (setting [8]).

These data come from patent publication US10023592B2, “Bromodomain inhibitors” (Celgene Quanticel Research, Inc., priority 2013, dated 2018).
